pKi: −log10 of the molar value.
biological target: T1, CRF1 receptors (Homo sapiens, UniProt P34998); test: CRF1 receptor radioligand binding assay ([125I]-oCRF competition, IMR-32 cell membranes); conditions: IMR-32 cell membranes, [125I]-oCRF 100 pM; read-out: Ki (CRF-1R)
T1 construct: endogenous in cells; host or cells: IMR-32 cells, transformed with 2.5 µM 5'-bromo-2'-deoxyuridine for 10 days; membrane preparation
T1 sequence (P34998 24-415): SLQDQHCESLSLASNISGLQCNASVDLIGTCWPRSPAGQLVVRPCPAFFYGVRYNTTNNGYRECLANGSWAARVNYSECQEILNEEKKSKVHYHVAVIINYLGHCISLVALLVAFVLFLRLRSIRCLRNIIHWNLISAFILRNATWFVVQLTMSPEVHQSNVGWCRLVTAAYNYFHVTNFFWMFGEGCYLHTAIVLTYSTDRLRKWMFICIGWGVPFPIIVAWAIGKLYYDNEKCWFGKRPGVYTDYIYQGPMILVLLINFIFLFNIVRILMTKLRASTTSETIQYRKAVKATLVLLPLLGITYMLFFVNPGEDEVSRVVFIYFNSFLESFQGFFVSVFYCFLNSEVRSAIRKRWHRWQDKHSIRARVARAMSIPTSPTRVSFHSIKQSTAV
Outline: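 Buffer: Tris pH 7.2 with MgCl2, BSA, Triton X-100, aprotinin, leupeptin; reaction stopped with ice-cold wash and filtered. Nonspecific binding set with 10 μM oCRF.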

pKi	SMILES
> 6.00	CCCCN(CC)Cc1c(C(F)(F)F)nc2n(-c3c(C)cc(C)cc3C)c3ncccc3n12 [Example 231, Butyl-ethyl-[2-trifluoromethyl-8-(2,4,6-trimethyl-phenyl)-8H-1,3a,7,8-tetraaza-cyclopenta[α]inden-3-ylmethyl]-amine]
> 6.00	Cc1cc(C)c(-n2c3ncccc3n3c(CN(CCC4CC4)CC(F)(F)F)c(C(F)(F)F)nc23)c(C)c1 [Example 232, (2-Cyclopropyl-ethyl)-(2,2,2-trifluoro-ethyl)-[2-trifluoromethyl-8-(2,4,6-trimethyl-phenyl)-8H-1,3a,7,8-tetraaza-cyclopenta[α]inden-3-ylmethyl]-amine]
> 5.00	CCN(Cc1ccccc1)Cc1c(C(F)(F)F)nc2n(-c3c(C)cc(C)cc3C)c3ncccc3n12 [Example 233, Benzyl-ethyl-[2-trifluoromethyl-8-(2,4,6-trimethyl-phenyl)-8H-1,3a,7,8-tetraaza-cyclopenta[α]inden-3-ylmethyl]-amine]
> 5.00	Cc1cc(C)c(-n2c3ncccc3n3c(CN(CCc4ccccc4)CC(F)(F)F)c(C(F)(F)F)nc23)c(C)c1 [Example 234, Phenethyl-(2,2,2-trifluoro-ethyl)-[2-trifluoromethyl-8-(2,4,6-trimethyl-phenyl)-8H-1,3a,7,8-tetraaza-cyclopenta[α]inden-3-ylmethyl]-amine]
> 5.00	CCCCN(Cc1ccccc1)Cc1c(C(F)(F)F)nc2n(-c3c(C)cc(C)cc3C)c3ncccc3n12 [Example 235, Benzyl-butyl-[2-trifluoromethyl-8-(2,4,6-trimethyl-phenyl)-8H-1,3a,7,8-tetraaza-cyclopenta[α]inden-3-ylmethyl]-a mine]
> 5.00	CCCN(Cc1ccccc1)Cc1c(C(F)(F)F)nc2n(-c3c(C)cc(C)cc3C)c3ncccc3n12 [Example 236, Benzyl-propyl-[2-trifluoromethyl-8-(2,4,6-trimethyl-phenyl)-8H-1,3a,7,8-tetraaza-cyclopenta[α]inden-3-ylmethyl]-amine]
> 7.00	CCc1nc2n(-c3c(C)cc(C)cc3C)c3ncccc3n2c1CN(CC1CC1)CC1CC1 [Example 246, Bis-cyclopropylmethyl-[2-ethyl-8-(2,4,6-trimethyl-phenyl)-8H-1,3a,7,8-tetraaza-cyclopenta[α]inden-3-ylmethyl]-amine]
> 7.00	CCCN(Cc1c(CC)nc2n(-c3c(C)cc(C)cc3C)c3ncccc3n12)CC1CC1 [Example 247, Cyclopropylmethyl-[2-ethyl-8-(2,4,6-trimethyl-phenyl)-8H-1,3a,7,8-tetraaza-cyclopenta[α]inden-3-ylmethyl]-propyl-amine]
> 7.00	CCc1nc2n(-c3c(C)cc(C)cc3C)c3ncccc3n2c1CN(CC)CCc1ccccc1 [Example 248, Ethyl-[2-ethyl-8-(2,4,6-trimethyl-phenyl)-8H-1,3a,7,8-tetraaza-cyclopenta[α]inden-3-ylmethyl]-phenethyl-amine]
> 7.00	C=CCN(CCC)Cc1c(CC)nc2n(-c3c(C)cc(C)cc3C)c3ncccc3n12 [Example 249, Allyl-[2-ethyl-8-(2,4,6-trimethyl-phenyl)-8H-1,3a,7,8-tetraaza-cyclopenta[α]inden-3-ylmethyl]-propyl-amine]
> 6.00	CCc1nc2n(-c3c(C)cc(C)cc3C)c3ncccc3n2c1CN(CC)CC1CC1 [Example 250, Cyclopropylmethyl-ethyl-[2-ethyl-8-(2,4,6-trimethyl-phenyl)-8H-1,3a,7,8-tetraaza-cyclopenta[α]inden-3-ylmethyl]-amine]
> 6.00	C=CCN(CC=C)Cc1c(CC)nc2n(-c3c(C)cc(C)cc3C)c3ncccc3n12 [Example 251, Diallyl-[2-ethyl-8-(2,4,6-trimethyl-phenyl)-8H-1,3a,7,8-tetraaza-cyclopenta[α]inden-3-ylmethyl]-amine]
> 6.00	CCCN(CCC1CC1)Cc1c(CC)nc2n(-c3c(C)cc(C)cc3C)c3ncccc3n12 [Example 252, (2-Cyclopropyl-ethyl)-[2-ethyl-8-(2,4,6-trimethyl-phenyl)-8H-1,3a,7,8-tetraaza-cyclopenta[α]inden-3-ylmethyl]-propyl-amine]
> 5.00	CCC(CC)NCc1c(C)nc2n(-c3c(C)cc(C)cc3Cl)c3ncccc3n12 [Example 279, [8-(2-Chloro-4,6-dimethyl-phenyl)-2-methyl-8H-1,3a,7,8-tetraaza-cyclopenta[α]inden-3-ylmethyl]-(1-ethyl-propyl)-amine]
> 7.00	CCCN(CC1CC1)C(=O)c1c(C)nc2n(-c3c(C)cc(C)cc3C)c(Cl)cn12 [Example 283, 6-Chloro-2-methyl-7-(2,4,6-trimethyl-phenyl)-7H-imidazo[1,2-a]imidazole-3-carboxylic acid cyclopropylmethyl-propyl-amide]
> 7.00	CCCN(Cc1c(C)nc2n(-c3c(C)cc(C)cc3C)c(Cl)cn12)CC1CC1 [Example 284, [6-Chloro-2-methyl-7-(2,4,6-trimethyl-phenyl)-7H-imidazo[1,2-a]imidazol-3-ylmethyl]-cyclopropylmethyl-propyl-amine]

pKi	SMILES
> 6.00	CCCN(CC1CC1)C(=O)c1c(CC)nc2n(-c3ccc(C(C)C)cc3Br)c(Cl)cn12 [Example 285, 6-Chloro-2-ethyl-7-(2-bromo-4-isopropylphenyl)-7H-imidazo[1,2-a]imidazole-3-carboxylic acid N-cyclopropylmethyl-N-propylamide]
> 8.00	CCc1nc2n(-c3ccc(Cl)cc3Cl)c(Cl)cn2c1C(=O)N(CC1CC1)CC(F)(F)F [Example 286, 6-Chloro-2-ethyl-7-(2,4-dichlorophenyl)-7H-imidazo[1,2-a]imidazole-3-carboxylic acid N-cyclopropylmethyl-N-(2,2,2-trifluoroethyl)amide]
> 8.00	CCCN(CCC)C(=O)c1c(CC)nc2n(-c3ccc(Cl)cc3Cl)c(Cl)cn12 [Example 287, 6-Chloro-2-ethyl-7-(2,4-dichlorophenyl)-7H-imidazo[1,2-a]imidazole-3-carboxylic acid N,N-dipropylamide]
> 7.00	CCCN(CCC)Cc1c(CC)nc2n(-c3ccc(Cl)cc3Cl)c(Cl)cn12 [Example 288, 3-[(N,N-Dipropylamino)methyl]-6-chloro-2-ethyl-7-(2,4-diclorophenyl)-7H-imidazo[1,2-a]imidazole]
> 7.00	CCc1nc2n(-c3ccc(Cl)cc3Cl)c(Cl)cn2c1CN(CC1CC1)CC(F)(F)F [Example 289, 3-[(N-Cyclopropylmethyl-N-(2,2,2-trifluoroethyl)amino)methyl]-6-chloro-2-ethyl-7-(2,4-diclorophenyl)-7H-imidazo[1,2-a]imidazole]
> 7.00	CCCN(CC1CC1)C(=O)c1c(CC)nc2n(-c3c(C)cc(C)cc3C)c(Cl)cn12 [Example 290, 6-Chloro-2-ethyl-7-(2,4,6-trimethylphenyl)-7H-imidazo[1,2-a]imidazole-3-carboxylic acid N-cyclopropylmethyl-N-propylamide]
> 7.00	CCCCN(CC)C(=O)c1c(CC)nc2n(-c3c(C)cc(C)cc3C)c(Cl)cn12 [Example 291, 6-Chloro-2-ethyl-7-(2,4,6-trimethylphenyl)-7H-imidazo[1,2-a]imidazole-3-carboxylic acid N-butyl-N-ethylamide]
> 7.00	CCCN(CCC)C(=O)c1c(CC)nc2n(-c3c(C)cc(C)cc3C)c(Cl)cn12 [Example 292, 6-Chloro-2-ethyl-7-(2,4,6-trimethylphenyl)-7H-imidazo[1,2-a]imidazole-3-carboxylic acid N,N-dipropylamide]
> 6.00	CCc1nc2n(-c3c(C)cc(C)cc3C)c(Cl)cn2c1C(=O)N(CC)CC [Example 293, 6-Chloro-2-ethyl-7-(2,4,6-trimethylphenyl)-7H-imidazo[1,2-a]imidazole-3-carboxylic acid N,N-diethylamide]
> 6.00	CCCCN(CC)Cc1c(CC)nc2n(-c3c(C)cc(C)cc3C)c(Cl)cn12 [Example 294, 3-[(N-Butyl-N-ethylamino)methyl]-6-chloro-2-ethyl-7-(2,4,6-trimethylphenyl)-7H-imidazo[1,2-a]imidazole]
> 6.00	C=CCN(CC=C)C(=O)c1c(CC)nc2n(-c3c(C)cc(C)cc3C)c(Cl)cn12 [Example 295, 6-Chloro-2-ethyl-7-(2,4,6-trimethylphenyl)-7H-imidazo[1,2-a]imidazole-3-carboxylic acid N,N-diallylamide]
> 8.00	CCc1nc2n(-c3c(C)cc(C)cc3C)c(Cl)cn2c1C(=O)N(CC1CC1)CC(F)(F)F [Example 296, 6-Chloro-2-ethyl-7-(2,4,6-trimethylphenyl)-7H-imidazo[1,2-a]imidazole-3-carboxylic acid N-cyclopropylmethyl-N-(2,2,2-trifluoroethyl)amide]
> 6.00	CCc1nc2n(-c3c(C)cc(C)cc3C)c(Cl)cn2c1C(=O)N(CC)Cc1ccncc1 [Example 297, 6-Chloro-2-ethyl-7-(2,4,6-trimethylphenyl)-7H-imidazo[1,2-a]imidazole-3-carboxylic acid N-ethyl-N-(pyridin-4-yl)methylamide]
> 8.00	CCc1nc2n(-c3c(C)cc(C)cc3C)c(Cl)cn2c1C(=O)N(CC)CC1CC1 [Example 298, 6-Chloro-2-ethyl-7-(2,4,6-trimethylphenyl)-7H-imidazo[1,2-a]imidazole-3-carboxylic acid N-cyclopropylmethyl-N-ethylamide]
> 7.00	CCc1nc2n(-c3c(C)cc(C)cc3C)c(Cl)cn2c1CN(CC)CC1CC1 [Example 299, 3-[(N-Cyclopropylmethyl-N-ethylamino)methyl]-6-chloro-2-ethyl-7-(2,4,6-trimethylphenyl)-7H-imidazo[1,2-a]imidazole]

From patent publication US7125990B2, “Imidazolyl derivatives as corticotropin releasing factor inhibitors” (Bristol-Myers Squibb COmpany, priority 2001, dated 2006)
